What was measured:
[1] = molecular target: T1, Human recombinant ALDH3A1 (Homo sapiens, UniProt P30838); assay: Enzymatic assay with human recombinant ALDH3A1 (NADP+, 4-NBA), IC50; assay type: biochemical; settings: substrate 4-Nitrobenzaldehyde, 37° C.
T1 sequence (P30838 1-453): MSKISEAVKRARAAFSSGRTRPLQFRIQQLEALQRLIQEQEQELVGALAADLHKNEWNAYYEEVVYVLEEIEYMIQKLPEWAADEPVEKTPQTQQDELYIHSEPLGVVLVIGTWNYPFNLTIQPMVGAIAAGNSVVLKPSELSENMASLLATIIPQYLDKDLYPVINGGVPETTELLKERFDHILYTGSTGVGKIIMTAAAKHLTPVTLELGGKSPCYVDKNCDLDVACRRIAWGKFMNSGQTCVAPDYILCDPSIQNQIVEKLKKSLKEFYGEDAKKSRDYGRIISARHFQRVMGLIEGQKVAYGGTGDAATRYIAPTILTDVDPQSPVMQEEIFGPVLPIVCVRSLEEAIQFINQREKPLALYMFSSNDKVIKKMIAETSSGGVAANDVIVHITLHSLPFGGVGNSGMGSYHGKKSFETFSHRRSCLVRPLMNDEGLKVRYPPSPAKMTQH
Description: For ALDH3A1 (1 mg/mL), 10 μL of enzyme was added into a reaction buffer containing 50 mM Tris, 5 mM DTT, pH 8, plus 40 mM Nicotinamide adenine dinucleotide phosphate (oxidized form, NADP^+) and 4-Nitrobenzaldehyde (4-NBA) (Sigma-.Aldrich). Internal standards were prepared with Nicotinamide adenine dinucleotide phosphate reduced form (NADPH, 5 μM, Sigma-Aldrich) in Reaction Buffer (50 mM Tris, 5 mM DTT, pH 8).
(§1) Time-dependent inhibition assays were performed for 0-2-5-10-15-20-30-45-60 min at 37° C. in 1 mL-quartz cuvette. The formation of NADH was monitored, reading samples at excitation wavelength=340 nm/emission wavelength=460 nm (fluorescence) for at least 600 sec using Cary Eclipse Varian fluorimeter.
Negative control consisted in the same reactions except that enzyme was not added (enzyme blank). To determine the slope for enzyme blank and calculate product concentration (Unit of fluorescence) the following formulae was used: […]
where Cst is the standard NADH concentration, Fst is the standard fluorescence and dF/dt is the slope of the time dependent fluorescence (S. Sotobodowska et al, 2012). The specific activity of the enzymes (μmol/min·mg-U/mg) in the absence of presence of inhibitors was calculated as follows: […]

[2] = system: HL-60; assay: Cell viability assay (Resazurin), cytotoxicity in HL60 cells; assay type: cell-based; settings: Homo sapiens, HL-60, read-out: IC50 at 48 h, 48 hours of incubation
Description: Cell lines. Leukemic cell line, HL-60 (derived from a person with AML-M2), was used for determination of drug efficacy. Cells were obtained from the European Collection of Cell Cultures (ECACC). All cells were cultivated in appropriate media according to supplier recommendations.
Cell Viability assay, 96-well format. Cells were seeded into 96-well cell culture plates at concentrations required to ensure approximately 80% confluence in control (untreated cells) at the end of experiment (0.5×10^4-5×10^4 cell/well).
The sensitivity towards compounds according to the invention was determined using different concentrations of each compound ranging from 0.5 to 100 μM (0.5, 1, 2, 5, 10, 15, 20, 25, 30, 40, 50, 100 μM). Following 48 hours of incubation at 37° C. in a humidified atmosphere containing 5% CO2, the growth-inhibitory effect of compounds was analyzed using Resazurin, according to manufactures instructions.
To ensure good data quality and to minimize impact of pipetting errors, each compounds concentration was assessed based on mean fluorescence intensity from 8 separate wells. Compounds response were quantified by the half maximal inhibitory concentration (IC50) for each particular cell line, and determined by non-linear regression analysis of log-dose/response curves.
Statistical Analysis. Values were expressed as mean±SD or frequencies and proportions. Cell viability curves were determined using four parameter regression line. Differences between groups were determined by unpaired t test, Chi-square, Fisher's exact test or ANOVA, where appropriate. P<0.05 was considered statistically significant. Analysis was performed using GraphPad prism version 5.0 (GraphPad software, San Diego Calif. USA).

[3] = system: ALDH class 1 recombinant enzymes; assay: Comparison with DIMATE on ALDH class 1 recombinant enzymes; assay type: biochemical, human; settings: from IC50 of Table 4
Description: Human recombinant ALDH1A1, ALDH1 A2, ALDH1A3, ALDH2 (Creative BioMart, NY, USA) were prepared at 1 mg/mL. The enzymatic reactions were performed using saturating concentrations of substrate. To test the enzymatic activity of the enzymes, 10 μL of enzyme was added into a reaction buffer containing 50 mM HEPES pH 7.2, 30 mM MgCl2, plus 20 mM NAD^+ cofactor and 2 mM Hexanal (Sigma-Aldrich, St. Louis, Mo., USA) in the presence or absence of the different tested compounds. Internal standards were prepared with Nicotinamide adenine dinucleotide reduce form (NADH, 500 μM, Sigma-Aldrich) in Reaction Buffer (50 mM HEPES pH 7.2, 30 mM MgCl2).
as §1
The kinetic data are expressed as the mean±standard error from three independent determination. Kinact/Ki was determined from Kobs versus concentration of the inhibitor [I] plots. […] The Kobs were obtained from negative exponential fit using non-linear regression program GraFit 5.0 (Erithacus software).

IC50 [1] [µM]	Inhibition of the ALDH class 1 enzymes compared with DIMATE [3]	SMILES	IC50 [2] [µM]
303 ± 46	–	CSC(=O)C#CC(C)(C)N(C)C [DIMATE, S-methyl 4-(dimethylamino)-4-methylpent-2-ynethioate, reference compound]	–
242 ± 11	higher inhibition	CSC(=O)C#CC(C)(C)N(C)CCOCc1ccccc1 [Example 3, S-methyl 4-[2-benzyloxyethyl(methyl)amino]-4-methyl-pent-2-ynethioate]	1.17
143 ± 2	higher inhibition	CSC(=O)C#CC(C)(C)N(C)CCOCc1ccc(C)c(C)c1 [Example 5, S-methyl 4-[2-[(3,4-dimethylphenyl)methoxy]ethyl-methyl-amino]-4-methyl-pent-2-ynethioate]	4.72
